# In patent US9447066B2, “Salts and crystal forms” (AskAt Inc., priority 2012, dated 2016):
# “Also recorded” adds a separate entry of the source. Where two headings read alike, the source gives them in different places.
# How the values were obtained:
# [1] = In vivo pharmacokinetic study in Beagle dogs; settings: male Beagle dogs; for AUC(0-t): read-out: AUC0-24h; for time-course of mean plasma concentration in comparison with API: oral capsule, FIG. 10
# Method: In vivo pharmacokinetic study was carried out in Beagle dogs.
# Male Beagle dogs were given single oral dose of the test articles by gelatin capsule formulation at a dose of 5 mg/kg. The actual weight of the test articles in the gelatin capsule to be administered to each animal was calculated based on the body weight measured just before the administration.
# Following dosing, blood was collected from the external jugular vein of animals at 0, 0.25, 0.5, 1, 2, 4, 6, 8, 12, 24, 48, 72, 96, 120, 144, 168, […], 288, and 360 hour after administration. Approximately 1 mL of blood will be collected into tubes containing heparin-Na.
# On the day of administration, food was given to the animals after 6-hour blood sampling.
# The drug concentrations in dog plasma were determined with the validated bioanalytical assay procedures. PK parameters were determined with non-compartmental analysis.
# [2] = Intrinsic dissolution experiments; assay type: physicochemical; settings: for intrinsic dissolution rate, comparison in words: pH 6.8 buffer and water; for time to plateau / complete dissolution of tablet: pH 6.8 buffer (neutral media)
# Method: Intrinsic dissolution experiments were performed on the free acid, the meglumine salt, and the potassium salt. The measurements were carried out in pH 6.8 (0.05 M) phosphate buffer and water.
# The press used for tablet preparation for intrinsic dissolution rate measurements was a mini-IDR compression system (pION/Heath Scientific). Approximately 11 mg of material was pressed in the cylindrical hole of a passivated stainless steel die, to a uniform, flat surface, with an exposed area of 0.072 cm^2. The pressure applied was approximately 50 bar for 3-5 min. The sample die was inserted in a cylindrical Teflon rotating disk carrier containing an embedded magnetic stirring bar at its base. The die/stirrer assembly was placed in a flat bottomed glass vial, ready for dissolution analysis.
# The dissolution rate was measured in 20 ml of solvent (medium) and the path length of the UV meter was 2 mm. Applied stirring speed during measurement was 100 rpm. Measurements were performed at 20° C.
# [3] = Quantitative Solubility Assessment; assay type: physicochemical; settings: pH 6.8 phosphate buffer (0.05 M) and water, thermodynamic from solid; neutral to basic environment
# Method: Quantitative Solubility Assessment were performed on the free acid, the meglumine salt, and the potassium salt. The measurements were carried out in pH 6.8 phosphate buffer (0.05M) and water.
# A standard 1.8 ml screw cap vial was charged with the material, each solvent (medium) and a magnetic stirring bar. The vials were subsequently closed and equilibrated at the ambient temperature for 24 h while stirring.
# The liquid part was retrieved with a syringe and filtrated (0.5 micron filter); the isolated mother liquors were diluted to two dilutions selected according to the calibration curve. Quantities of the API in the diluted solutions were determined via HPLC analysis (DAD). The calibration curve was obtained from two independently prepared stock solutions of the API in 50% water/50% acetonitrile.
# [4] = Solid-state stability at 40° C. and 75% relative humidity; assay type: physicochemical; settings: 75% RH, 1 to 4 weeks
# Method: The solid-state stabilities were assessed as follows: HPLC vials, containing approximately 5 mg of material, were placed in the climate chamber at 40° C. and 75% relative humidity. The samples were analyzed by XRPD and HPLC (both purity and chiral) at time points of 1, 2, 3 and 4 weeks. For each week a separate vial was prepared.
# [5] = Variable humidity XRPD (VH-XRPD); assay type: physicochemical; settings: 60 to 80% RH, 80 to 10% RH, 10 to 50% RH
# Method: (§1) For variable humidity and temperature experiment the ANSYCO HT chamber was used. The material was placed on a fixed sample holder that was mounted inside the chamber. The humidity was applied locally and varied from 10 to 80% (dew point). The temperature variation rate was 10° C./min.
# Variable humidity XRPD (VH-XRPD) measurements of the meglumine salt were performed under the humidity of 60 to 80% RH (1st sorption), 80 to 10% RH (desorption) and 10 to 50% (2nd sorption).
# [6] = Slurry experiments (physical stability in solvents); assay type: physicochemical; settings: ethanol, ethyl acetate, n-heptane; 25° C.; 2 weeks
# Method: The slurry experiments of the meglumine salt were performed; the materials (15-30 mg) were weighed into 1.8 ml vials, charged with a stirring bar and the solvent (ethanol, ethyl acetate and n-heptane) and the slurries were placed at 25° C. under stirring. After two weeks, the slurries were subject to centrifugation and the liquid was removed with a pipette. The solids were sampled “wet” for XRPD. Subsequently the remaining solids dried under 200 mbar at room temperature for 5 days and all solids were analyzed as “dry” by XRPD.
# [7] = Variable temperature XRPD (VT-XRPD); assay type: physicochemical; settings: 25° C. to 160° C. and back to 25° C.
# Method: as §1
# Variable temperature XRPD (VT-XRPD) measurements of the meglumine salt were performed under the temperature of 25° C. to 160° C. (heating) and thereafter decreased to 25° C. (cooling).
# [8] = DVS analysis (moisture sorption); assay type: physicochemical
# Method: Moisture sorption isotherms of small samples were obtained using a DVS-1 system from Surface Measurement Systems (London, UK) with an accuracy of 0.1 μg. The relative humidity cycled between 45 and 95% RH (sorption), 95 to 0% RH (desorption) and 0 to 45% (sorption) at a constant temperature of 25° C. with a hold time of 60 minutes per step (10% relative humidity step). At the end of the DVS experiment the sample was measured by XRPD.
# The XRPD pattern of the sample after DVS measurement was not changed.
# [9] = dog, plasma, single oral dose 5 mg/kg, gelatin capsule
# [10] = dog, plasma, single oral dose 5 mg/kg, gelatin capsule, read-out: Cmax
# [11] = pH 6.8 (0.05 M) phosphate buffer, 20° C., 100 rpm
# [12] = single oral dose 5 mg/kg, gelatin capsule
compound,measurement,setting,value
"CC(C)(C)c1cc2c(cc1Cl)C=C(C(=O)O)[C@@H](C(F)(F)F)O2 [Compound A, (S)-6-chloro-7-(1,1-dimethylethyl)-2-trifluoromethyl-2H-1-benzopyran-3-carboxylic acid]",AUC(0-t),[1]; [9],287 µg·h/mL
same,Cmax,[1]; [10],19700 ng/mL
same,concentration after one hour,[2]; [11],27000 ng/mL
same,"intrinsic dissolution rate, comparison in words",[2],very limited dissolution
same,concentration after one hour,"[2]; water, 20° C., 100 rpm",about 1 μg/ml
"CC(C)(C)c1cc2c(cc1Cl)C=C(C(=O)[O-])[C@@H](C(F)(F)F)O2.[K+] [potassium salt, (S)-6-chloro-7-(1,1-dimethylethyl)-2-trifluoromethyl-2H-1-benzopyran-3-carboxylic acid potassium salt]",solubility at 24 h,[3],> 120 mg/mL
same,chemical purity after solid-state stability test,[4],≥ 99.9%
same,enantiomeric purity after solid-state stability test,[4],≥ 99.9%
same,AUC(0-t),[1]; [9],436 µg·h/mL
same,Cmax,[1]; [10],28200 ng/mL
same,time-course of mean plasma concentration in comparison with API,[1],rapidly increased
same,plateau concentration (dissolution of complete tablet),[2]; [11],370 µg/mL
same,time to plateau / complete dissolution of tablet,[2]; 20° C.,≤ 15 min
same,"intrinsic dissolution rate, comparison in words",[2]; potassium salt,much better than the free acid; also recorded: dissolved the fastest in all cases
same,time to complete dissolution of tablet,"[2]; water, 20° C.",≤ 5 min
same,final concentration (complete tablet dissolved),"[2]; water, 20° C., 100 rpm",400 µg/mL
"(S)-6-chloro-7-(1,1-dimethylethyl)-2-trifluoromethyl-2H-1-benzopyran-3-carboxylic acid meglumine salt",crystal form through sorption-desorption-sorption cycle (VH-XRPD),[5],remained unchanged
same,physical stability of wet and dry solids in slurry (XRPD),[6],physically stable
same,"physical and chemical stability (XRPD, HPLC)",[4],remained physically and chemically stable
same,crystal form through heating-cooling cycle (VT-XRPD),[7],remained unchanged
same,maximum water uptake,"[8]; DVS, at 95% RH, 25° C.",2.0%
same,XRPD pattern of the sample after DVS measurement,[8]; after DVS cycle,not changed
same,time-course of mean plasma concentration in comparison with API,[1],rapidly increased
same,AUC0-24h,[1]; [12],"381,000 ng · hr/mL"
same,Cmax,[1]; [12],"28,200 ng/mL"
same,plateau concentration (dissolution of complete tablet),[2]; [11],about 250 μg/ml
same,time to plateau / complete dissolution of tablet,[2]; 20° C.,45 min
same,"intrinsic dissolution rate, comparison in words",[2],much better than the free acid
same,concentration reached in the first 9 min,"[2]; water, 20° C., 100 rpm",about 210 μg/ml
same,final concentration (complete tablet dissolved),"[2]; water, 20° C., 100 rpm",250 µg/mL
